According to patent publication US12662475B2, “Difluorocyclohexyl derivatives as IL-17 modulators” (UCB BIOPHARMA SRL, priority 2020, dated 2026):

Key:
[1] = target: T1, interaction between IL-17A and soluble IL-17 Receptor A (IL-17RA) (Homo sapiens, UniProt Q16552); assay: IL-17 FRET assay; conditions: IL-17A binding to IL-17RA
T1 construct: made in house; host or cells: IL-17A-Fc: CHO SXE cells; IL-17RA: Expi HEK293 cells
T1 sequence (Q16552 24-155): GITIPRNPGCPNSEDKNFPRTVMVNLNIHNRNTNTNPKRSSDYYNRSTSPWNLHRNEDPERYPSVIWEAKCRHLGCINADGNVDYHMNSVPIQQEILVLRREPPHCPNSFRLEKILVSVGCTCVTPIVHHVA
Procedure: The purpose of this assay is to test the ability of compounds to disrupt the interaction between IL-17A and soluble IL-17 Receptor A (IL-17RA). The ability of a compound to inhibit IL-17A binding to IL-17RA is measured in this assay.
An IL-17AA-TEV-Human Fc construct was expressed in a CHO SXE cell system and purified by protein A chromatography and size exclusion. The protein was labelled with an amine reactive AlexaFluor 647 dye (Thermo Fisher #A20006), as per manufacturer's instruction.
Soluble IL-17RA (33-317)-HKH-TEV-Fc was expressed in an Expi HEK293 cell system and purified by protein A chromatography and size exclusion. The Fc tag was cleaved by TEV, producing IL-17RA (33-317)-HKH, and the protein was labelled with amine reactive terbium (Thermo Fisher #PV3581).
In assay buffer [Dulbecco's PBS (Sigma #14190-094), 0.05% P20 (Thermo Scientific #28320), 1 mg/mL BSA (Sigma #A2153-500G)] the following solutions were prepared:
• IL-17A-Fc-AF647 at 5 nM • IL-17RA-HKH-Tb at 5 nM
Compounds were serially diluted in DMSO before receiving an aqueous dilution into a 384 well dilution plate (Greiner #781281), to give a 25% DMSO solution.
IL-17A (10 μL) was added to a black low volume assay plate (Costar #4511) and diluted compound (5 μL) was transferred from the aqueous dilution plate. The cytokine and compound were allowed to incubate for 1 h, then IL-17RA (10 μL) was added. The plates were wrapped in foil and incubated at room temperature for 18-20 h with gentle shaking (<400 rpm) before being read on a Perkin Elmer Envision plate reader (Excitation: 330 nm; Emission 615/645 nm).
The final assay concentrations were IL-17A-AF647 2 nM and IL-17RA-Tb 2 nM, 5% DMSO.

[2] = tested on: IL-17 induced IL-6 release from human dermal fibroblasts; assay: Inhibition of IL-17A induced IL-6 release from dermal fibroblast cell line (HDF cell line assay); type: cell-based
Method in brief: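 Human dermal fibroblasts stimulated with IL-17A; compounds pre-incubated with cytokine for 1 h or 5 h at 37° C., then added to cells for 18-20 h at 37° C./5% CO2 ([…]). Released IL-6 quantified by HTRF with Eu-Cryptate and d2/XL665-labelled antibodies.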

**Q.** Which IC50 [1] does the source give for `Cc1nonc1C(=O)N[C@H](c1nc2c(F)c(C3(C(=O)N4CC(F)(F)C4)CCNCC3)ccc2[nH]1)C1CCC(F)(F)CC1` [Example 16, N—[(S)-{5-[4-(3,3-Difluoroazetidine-1-carbonyl)piperidin-4-yl]-4-fluoro-1H-benzimidazol-2-yl}(4,4-difluorocyclohexyl)methyl]-4-methyl-1,2,5-oxadiazole-3-carboxamide] here?
**A.** 126 nM

**Q.** What about the IC50 ([2]; Incubation Time 5 h) of the same molecule?
**A.** 79.4 nM

**Q.** With `COC(=O)N1CCC(C(=O)N2CC(F)(F)C2)(c2ccc3[nH]c([C@@H](NC(=O)c4nonc4C)C4CCC(F)(F)CC4)nc3c2F)CC1` [Example 17, Methyl 4-(3,3-difluoroazetidine-1-carbonyl)-4-(2-{(S)-(4,4-difluorocyclohexyl)[(4-methyl-1,2,5-oxadiazole-3-carbonyl)amino]methyl}-4-fluoro-1H-benzimidazol-5-yl)-piperidine-1-carboxylate] as the molecule, how does the IC50 [1] read?
**A.** 50.1 nM

**Q.** And the IC50 ([2]; Incubation Time 5 h)?
**A.** 12.6 nM

**Q.** With `[2H]C([2H])([2H])n1nccc1C(=O)N[C@H](c1nc2c(F)c(C3(C(=O)N4CC(F)(F)C4)CC(F)(F)C3)ccc2[nH]1)C1CCC(F)(F)CC1` [Example 18, N—[(S)-{5-[1-(3,3-Difluoroazetidine-1-carbonyl)-3,3-difluorocyclobutyl]-4-fluoro-1H-benzimidazol-2-yl}(4,4-difluorocyclohexyl)methyl]-2-(trideuteriomethyl)pyrazole-3-carboxamide] as the molecule, how does the IC50 [1] read?
**A.** 158 nM

**Q.** What about the IC50 ([2]; Incubation Time 1 h) of the same molecule?
**A.** 79.4 nM

**Q.** For `Cc1nonc1C(=O)N[C@H](c1nc2c(F)c(C3(C(=O)N4CC(F)(F)C(F)(F)C4)CCOCC3)ccc2[nH]1)C1CCC(F)(F)CC1` [Example 19, N—[(S)-(4,4-Difluorocyclohexyl){4-fluoro-5-[4-(3,3,4,4-tetrafluoropyrrolidine-1-carbonyl)tetrahydropyran-4-yl]-1H-benzimidazol-2-yl}methyl]-4-methyl-1,2,5-oxadiazole-3-carboxamide], which IC50 [1] is on record?
**A.** 12.6 nM

**Q.** What about the IC50 ([2]; Incubation Time 5 h) of the same molecule?
**A.** 3.98 nM

**Q.** Which results are given for `Cc1nonc1C(=O)N[C@H](c1nc2c(F)c(C3(C(=O)N4CC(F)(F)C4)CCC(F)(F)CC3)ccc2[nH]1)C1CCC(F)(F)CC1` [Example 23, N—[(S)-{5-[1-(3,3-Difluoroazetidine-1-carbonyl)-4,4-difluorocyclohexyl]-4-fluoro-1H-benzimidazol-2-yl}(4,4-difluorocyclohexyl)methyl]-4-methyl-1,2,5-oxadiazole-3-carboxamide]?
**A.** IC50 [1]: 20 nM; IC50 ([2]; Incubation Time 5 h): 10 nM

**Q.** How did the IC50 [1] turn out when `Cc1nonc1C(=O)N[C@H](c1nc2nc(C3(C(=O)NCC4CC4(F)F)CCOCC3)ccc2[nH]1)C1CCC(F)(F)CC1` (stereo partly drawn) [Example 24, N—[(S)-(4,4-Difluorocyclohexyl)(5-{4-[(2,2-difluorocyclopropyl)methylcarbamoyl]-tetrahydropyran-4-yl}-1H-imidazo[4,5-b]pyridin-2-yl)methyl]-4-methyl-1,2,5-oxadiazole-3-carboxamide] was run?
**A.** 25.1 nM

**Q.** And the IC50 ([2]; Incubation Time 5 h)?
**A.** 6.31 nM
